Results reported in publication PMC10897476, “Pyridylpiperazine efflux pump inhibitor boosts in vivo antibiotic efficacy against K. pneumoniae” (EMBO Molecular Medicine, 2023).
Where “and” joins values, the source holds several entries; their conditions need not be identical. Equal values may be shown once.

Assays:
[1] = system: K. pneumoniae AcrB^V448E RamR^mut; experiment: Checkerboard assay levofloxacin x EPI, double mutant; assay type: cell-based, Klebsiella pneumoniae; settings: ATCC43816 AcrBV448E ramRmut, EPI 0 µM
Experimental: (§1) MIC experiments were carried out according to the CLSI guidelines (CLSI [2023]). Overnight cultures were diluted to an OD600 = 0.001 in CAMHB followed by addition of efflux pump inhibitors (EPIs) at a final concentration of 100 µM. […] Plates were incubated at 37 °C for up to 20 h. Bacterial viability was evaluated using the resazurin microtitre assay (REMA) and measured by fluorescence using a Tecan Spaert multimode plate reader (Ex: 530 nm Em: 590 nm). MICs were defined as the concentration that prevented 90% of resazurin turnover compared to the non-treated bacteria.
(§2) Bacterial suspensions, incubation and plate readouts were carried out as described above.

K. pneumoniae AcrB^V448E = experiment: Checkerboard assay levofloxacin x EPI, AcrB V448E mutant; assay type: cell-based, Klebsiella pneumoniae; settings: for checkerboard growth readout: ATCC43816 AcrBV448E, EPI 0 µM; for percentage resazurin turnover: listed as Lev
Experimental: as §1, §2

[2] = Lev 0.24 ng/mL, BDM91288 0.00 uM
[3] = Lev 0.49 ng/mL, BDM91288 0.00 uM
[4] = Lev 0.98 ng/mL, BDM91288 0.00 uM
[5] = Lev 1.95 ng/mL, BDM91288 0.00 uM
[6] = Lev 3.91 ng/mL, BDM91288 0.00 uM
[7] = Lev 7.81 ng/mL, BDM91288 0.00 uM
[8] = Lev 15.63 ng/mL, BDM91288 0.00 uM
[9] = Lev 31.25 ng/mL, BDM91288 0.00 uM
[10] = Lev 62.50 ng/mL, BDM91288 0.00 uM

In the case of C[C@H]1COc2c(N3CCN(C)CC3)c(F)cc3c(=O)c(C(=O)O)cn1c23 [Levofloxacin], the checkerboard growth readout ([1]; levofloxacin 4 ng/mL) is reported as 105 and 97, the checkerboard growth readout ([1]; levofloxacin 8 ng/mL) is reported as 113 and 94 and the checkerboard growth readout ([1]; levofloxacin 15.625 ng/mL) is reported as 114 and 99. The checkerboard growth readout ([1]; levofloxacin 31.25 ng/mL) was 121 and 95, the checkerboard growth readout ([1]; levofloxacin 62.5 ng/mL) was 141 and 104 and the checkerboard growth readout ([1]; levofloxacin 250 ng/mL) was 148 and 137. For the same molecule, the checkerboard growth readout ([1]; levofloxacin 500 ng/mL) was 131 and 124, the checkerboard growth readout (K. pneumoniae AcrB^V448E; levofloxacin 4 ng/mL) was 107 and 101 and the checkerboard growth readout (K. pneumoniae AcrB^V448E; levofloxacin 8 ng/mL) was 111 and 91. For the same molecule, the checkerboard growth readout (K. pneumoniae AcrB^V448E; levofloxacin 15.625 ng/mL) was 117 and 89, the checkerboard growth readout (K. pneumoniae AcrB^V448E; levofloxacin 31.25 ng/mL) was 91 and 81 and the “Median REMA values” (K. pneumoniae AcrB^V448E; [2]) was 88%. The percentage resazurin turnover (K. pneumoniae AcrB^V448E; [2]) was 93% and 88% and 53%, the “Median REMA values” (K. pneumoniae AcrB^V448E; Lev 0.24 ng/mL, PABN 0.00 uM) was 81% and the percentage resazurin turnover (K. pneumoniae AcrB^V448E; Lev 0.24 ng/mL, PABN 0.00 uM) was 88% and 81% and 56%. For the same molecule, the “Median REMA values” (K. pneumoniae AcrB^V448E; [3]) was 105%, the percentage resazurin turnover (K. pneumoniae AcrB^V448E; [3]) was 102% and 108% and 105% and the “Median REMA values” (K. pneumoniae AcrB^V448E; Lev 0.49 ng/mL, PABN 0.00 uM) was 70%. The percentage resazurin turnover (K. pneumoniae AcrB^V448E; Lev 0.49 ng/mL, PABN 0.00 uM) was 68% and 101% and 70%, the “Median REMA values” (K. pneumoniae AcrB^V448E; [4]) was 98% and the percentage resazurin turnover (K. pneumoniae AcrB^V448E; [4]) was 98% and 105% and 79%. The “Median REMA values” (K. pneumoniae AcrB^V448E; Lev 0.98 ng/mL, PABN 0.00 uM) was 106%, the percentage resazurin turnover (K. pneumoniae AcrB^V448E; Lev 0.98 ng/mL, PABN 0.00 uM) was 106% and 107% and 72% and the “Median REMA values” (K. pneumoniae AcrB^V448E; [5]) was 108%. For the same molecule, the percentage resazurin turnover (K. pneumoniae AcrB^V448E; [5]) was 108% and 109% and 104%, the “Median REMA values” (K. pneumoniae AcrB^V448E; Lev 1.95 ng/mL, PABN 0.00 uM) was 104% and the percentage resazurin turnover (K. pneumoniae AcrB^V448E; Lev 1.95 ng/mL, PABN 0.00 uM) was 104% and 118% and 78%. For the same molecule, the “Median REMA values” (K. pneumoniae AcrB^V448E; [6]) was 107%, the percentage resazurin turnover (K. pneumoniae AcrB^V448E; [6]) was 107% and 111% and 81% and the “Median REMA values” (K. pneumoniae AcrB^V448E; Lev 3.91 ng/mL, PABN 0.00 uM) was 101%. The percentage resazurin turnover (K. pneumoniae AcrB^V448E; Lev 3.91 ng/mL, PABN 0.00 uM) was 101% and 111% and 73%, the “Median REMA values” (K. pneumoniae AcrB^V448E; [7]) was 111% and the percentage resazurin turnover (K. pneumoniae AcrB^V448E; [7]) was 111% and 76%. For the same molecule, the “Median REMA values” (K. pneumoniae AcrB^V448E; Lev 7.81 ng/mL, PABN 0.00 uM) was 91%, the percentage resazurin turnover (K. pneumoniae AcrB^V448E; Lev 7.81 ng/mL, PABN 0.00 uM) was 91% and 110% and 79% and the “Median REMA values” (K. pneumoniae AcrB^V448E; [8]) was 117%. For the same molecule, the percentage resazurin turnover (K. pneumoniae AcrB^V448E; [8]) was 117% and 105%, the “Median REMA values” (K. pneumoniae AcrB^V448E; Lev 15.63 ng/mL, PABN 0.00 uM) was 89% and the percentage resazurin turnover (K. pneumoniae AcrB^V448E; Lev 15.63 ng/mL, PABN 0.00 uM) was 119% and 89% and 72%. For the same molecule, the “Median REMA values” (K. pneumoniae AcrB^V448E; [9]) was 91%, the percentage resazurin turnover (K. pneumoniae AcrB^V448E; [9]) was 91% and 87% and 102% and the “Median REMA values” (K. pneumoniae AcrB^V448E; Lev 31.25 ng/mL, PABN 0.00 uM) was 81%. For the same molecule, the percentage resazurin turnover (K. pneumoniae AcrB^V448E; Lev 31.25 ng/mL, PABN 0.00 uM) was 81% and 70%, the “Median REMA values” (K. pneumoniae AcrB^V448E; [10]) was -0.206% and the percentage resazurin turnover (K. pneumoniae AcrB^V448E; [10]) was -0.206% and -0.287% and -0.155%. The “Median REMA values” (K. pneumoniae AcrB^V448E; Lev 62.50 ng/mL, PABN 0.00 uM) was -0.817% and the percentage resazurin turnover (K. pneumoniae AcrB^V448E; Lev 62.50 ng/mL, PABN 0.00 uM) was -0.685% and -0.817% and -0.819%.
